For assay [1], the target named is T1, LFA-1 binding to immobilized ICAM-1 (Homo sapiens, UniProt P05107+P20701).
T1 construct: made in house; host or cells: transfected 293 cells (LFA-1)
Put plainly: LFA-1/ICAM-1 protein-protein assay (solid-phase ELISA). The method in brief: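 Human 5dICAM-Ig (ICAM-1 extracellular domain–IgG Fc) coated on plates; membrane-bound LFA-1 from transfected 293 cells (280 ng/mL) added with compound in Mn2+-containing HEPES buffer pH 7.2, 2 h at 37° C. Bound LFA-1 detected via anti-β2 antibody and HRP/TMB at 450 nm; IC50s determined.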
In general terms: An ELISA detects its analyte on a solid surface through an enzyme-linked reagent.

Assay [2] relates to T lymphocyte proliferation (C57BI/6 spleen cells with irradiated BALB/c spleen cells). Nature of the assay: Mixed lymphocyte reaction (MLR), one-way. The class given is cell-based, mice. The method in brief:
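Irradiated BALB/c spleen cells mixed with C57BI/6 spleen cells in RPMI1640/10% heat-inactivated FBS/2-mercaptoethanol, with serial antagonist dilutions; 3 days at 5% CO2. Tritiated thymidine (0.5 μCi/well) added on day 3; incorporation counted by liquid scintillation after a further 6 h.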

The mark [3] stands for this setting: read-out: LFA-1/ICAM-1 Protein-Protein Assay IC50.
Setting [4] is: Mus musculus, T-lymphocyte; read-out: MLR IC50.
[5] abbreviates: LFA-1/ICAM-1 Protein-Protein Assay IC50.
Where [6] appears, read: Mus musculus, T-lymphocyte, read-out: MLR IC50.

Read-outs that look alike come from different tables or passages of the source.

T1 sequence (P20701 26-1170): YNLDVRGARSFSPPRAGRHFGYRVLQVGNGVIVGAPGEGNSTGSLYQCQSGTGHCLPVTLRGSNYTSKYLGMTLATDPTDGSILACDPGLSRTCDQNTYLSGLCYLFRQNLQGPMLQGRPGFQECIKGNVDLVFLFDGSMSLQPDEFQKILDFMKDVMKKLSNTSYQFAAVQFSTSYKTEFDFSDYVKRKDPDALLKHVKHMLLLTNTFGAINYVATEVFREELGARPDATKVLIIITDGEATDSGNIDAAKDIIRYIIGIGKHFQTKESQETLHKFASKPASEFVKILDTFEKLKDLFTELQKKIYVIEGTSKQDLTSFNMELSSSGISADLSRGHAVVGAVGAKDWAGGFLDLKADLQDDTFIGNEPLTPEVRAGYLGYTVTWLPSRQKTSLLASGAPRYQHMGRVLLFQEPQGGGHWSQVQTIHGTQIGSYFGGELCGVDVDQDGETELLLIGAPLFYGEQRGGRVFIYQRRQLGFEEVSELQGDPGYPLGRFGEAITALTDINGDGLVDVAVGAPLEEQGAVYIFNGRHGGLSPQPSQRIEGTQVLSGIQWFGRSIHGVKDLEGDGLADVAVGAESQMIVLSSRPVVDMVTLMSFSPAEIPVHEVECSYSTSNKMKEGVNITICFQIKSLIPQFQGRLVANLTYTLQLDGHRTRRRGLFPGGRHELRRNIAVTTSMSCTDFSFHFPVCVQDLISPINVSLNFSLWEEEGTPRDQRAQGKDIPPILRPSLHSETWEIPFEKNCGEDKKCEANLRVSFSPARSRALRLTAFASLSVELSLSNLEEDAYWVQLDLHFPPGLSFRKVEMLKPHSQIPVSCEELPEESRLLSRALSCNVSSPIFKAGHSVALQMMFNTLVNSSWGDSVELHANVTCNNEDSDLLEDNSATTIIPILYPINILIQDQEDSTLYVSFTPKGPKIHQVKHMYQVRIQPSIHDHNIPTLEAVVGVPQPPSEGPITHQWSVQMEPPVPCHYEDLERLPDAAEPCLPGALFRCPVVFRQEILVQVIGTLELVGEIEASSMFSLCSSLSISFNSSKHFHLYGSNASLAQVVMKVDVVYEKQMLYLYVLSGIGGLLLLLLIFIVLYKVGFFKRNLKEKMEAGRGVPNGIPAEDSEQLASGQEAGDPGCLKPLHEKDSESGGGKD
T1 sequence (P05107 23-769): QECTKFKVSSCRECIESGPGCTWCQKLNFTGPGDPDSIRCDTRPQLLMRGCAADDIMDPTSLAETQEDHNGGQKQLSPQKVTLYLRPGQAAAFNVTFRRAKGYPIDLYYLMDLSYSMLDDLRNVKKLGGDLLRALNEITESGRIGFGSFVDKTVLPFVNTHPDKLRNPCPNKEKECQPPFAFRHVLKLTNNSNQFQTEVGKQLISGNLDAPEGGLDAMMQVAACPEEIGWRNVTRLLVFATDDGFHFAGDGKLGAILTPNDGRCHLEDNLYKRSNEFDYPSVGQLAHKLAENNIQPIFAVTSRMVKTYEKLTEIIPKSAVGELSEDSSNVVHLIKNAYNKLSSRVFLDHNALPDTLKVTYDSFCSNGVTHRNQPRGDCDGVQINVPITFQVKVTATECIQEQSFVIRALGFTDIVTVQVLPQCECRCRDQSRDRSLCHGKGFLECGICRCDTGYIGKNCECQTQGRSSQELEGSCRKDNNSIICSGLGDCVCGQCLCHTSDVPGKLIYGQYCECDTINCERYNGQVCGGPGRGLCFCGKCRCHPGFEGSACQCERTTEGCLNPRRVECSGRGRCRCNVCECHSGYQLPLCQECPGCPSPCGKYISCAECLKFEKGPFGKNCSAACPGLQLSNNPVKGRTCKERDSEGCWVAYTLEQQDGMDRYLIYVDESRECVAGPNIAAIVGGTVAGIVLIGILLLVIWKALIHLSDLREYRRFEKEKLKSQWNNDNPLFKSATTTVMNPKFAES

Turning to `O=C(CC1CCCCC1)NC[C@H](NC(=O)c1ccc(C(=O)NCc2cccc(O)c2)cc1Cl)C(=O)O` [Example 78], the IC50 in assay [1] (setting [3]) worked out at 1 nM; in assay [2] (setting [4]), 1020 nM.
The matching figures for `O=C(Cc1ccccc1)NC[C@H](NC(=O)c1ccc(C(=O)NCc2cccc(O)c2)cc1Cl)C(=O)O` [Example 79]: 2.9 nM and 2500 nM.
The matching figures for `COc1ccc(CC(=O)NC[C@H](NC(=O)c2ccc(C(=O)NCc3cccc(O)c3)cc2Cl)C(=O)O)cc1` [Example 80]: 6 nM and 1800 nM.
The corresponding values for `O=C(Cc1ccc([N+](=O)[O-])cc1)NC[C@H](NC(=O)c1ccc(C(=O)NCc2cccc(O)c2)cc1Cl)C(=O)O` [Example 81] are 4 nM and 1650 nM.
Take `O=C(Cc1cccc(C(F)(F)F)c1)NC[C@H](NC(=O)c1ccc(C(=O)NCc2cccc(O)c2)cc1Cl)C(=O)O` [Example 82]: the figures for the IC50 in assay [1] (setting [3]) and in assay [2] (setting [4]) were 4.3 nM and 1700 nM, respectively.
Take `O=C(Cc1ccc([N+](=O)[O-])cc1[N+](=O)[O-])NC[C@H](NC(=O)c1ccc(C(=O)NCc2cccc(O)c2)cc1Cl)C(=O)O` [Example 83]: the IC50 turned out to be 2.3 nM in assay [1] (setting [5]) and 460 nM in assay [2] (setting [6]).
Consider `O=C(Cc1cccs1)NC[C@H](NC(=O)c1ccc(C(=O)NCc2cccc(O)c2)cc1Cl)C(=O)O` [Example 84], for which the IC50 was 1 nM in assay [1] (setting [3]) and 1300 nM in assay [2] (setting [4]).
Take `O=C(NCc1cccc(O)c1)c1ccc(C(=O)N[C@@H](CNC(=O)C(c2ccccc2)c2ccccc2)C(=O)O)c(Cl)c1` [Example 86]: the IC50 in assay [1] (setting [3]) amounted to 3.3 nM; in assay [2] (setting [4]), 4150 nM.
The corresponding values for `O=C(Cc1ccc2ccccc2c1)NC[C@H](NC(=O)c1ccc(C(=O)NCc2cccc(O)c2)cc1Cl)C(=O)O` [Example 87] are 4.8 nM and 1300 nM.
Regarding `O=C(CC1c2ccccc2-c2ccccc21)NC[C@H](NC(=O)c1ccc(C(=O)NCc2cccc(O)c2)cc1Cl)C(=O)O` [Example 88], the IC50 in assay [1] (setting [3]) worked out at 1.8 nM; in assay [2] (setting [4]), 12500 nM.
The matching figures for `O=C(C[n+]1csc2ccccc21)NC[C@H](NC(=O)c1ccc(C(=O)NCc2cccc(O)c2)cc1Cl)C(=O)O` [Example 89]: 5.9 nM and 10500 nM.
The matching figures for `O=C(CSc1ccncc1)NC[C@H](NC(=O)c1ccc(C(=O)NCc2cccc(O)c2)cc1Cl)C(=O)O` [Example 90]: 2.4 nM and 1450 nM.
The corresponding values for `O=C(CSc1ncccn1)NC[C@H](NC(=O)c1ccc(C(=O)NCc2cccc(O)c2)cc1Cl)C(=O)O` [Example 91] are 5 nM and 2450 nM.
`CC(C)(C)C(=O)NC[C@H](NC(=O)c1ccc(C(=O)NCc2cccc(O)c2)cc1Cl)C(=O)O` [Example 92]: the IC50 in assay [1] (setting [3]) stood at 2.1 nM; in assay [2] (setting [4]), 900 nM.
The corresponding values for `O=C(NCc1cccc(O)c1)c1ccc(C(=O)N[C@@H](CNC(=O)C23CC4CC(CC(C4)C2)C3)C(=O)O)c(Cl)c1` [Example 93] are 0.5 nM and 525 nM.
Consider `O=C(CCc1ccccc1)NC[C@H](NC(=O)c1ccc(C(=O)NCc2cccc(O)c2)cc1Cl)C(=O)O` [Example 94], for which the IC50 is 1.5 nM in assay [1] (setting [3]) and 1400 nM in assay [2] (setting [4]).
Take `O=C(NCc1cccc(O)c1)c1ccc(C(=O)N[C@@H](CNC(=O)c2cc([N+](=O)[O-])cc([N+](=O)[O-])c2)C(=O)O)c(Cl)c1` [Example 129]: the IC50 in assay [1] (setting [5]) was 4.2 nM; in assay [2] (setting [6]), 3000 nM.
As to `O=C(NCc1cccc(O)c1)c1ccc(C(=O)N[C@@H](CNC(=O)c2cnccn2)C(=O)O)c(Cl)c1` [Example 170], the IC50 in assay [1] (setting [3]) is 1.9 nM; in assay [2] (setting [4]), 560 nM.
Consider `O=C(NCc1cccc(O)c1)c1ccc(C(=O)N[C@@H](CNC(=O)c2c3c(nc4ccccc24)CCCC3)C(=O)O)c(Cl)c1` [Example 190], for which the IC50 in assay [1] (setting [3]) was determined as 13 nM.
With `O=C(NC[C@H](NC(=O)c1c(F)cccc1Cl)C(=O)O)c1ccc2[nH]nnc2c1` [Example 226], the IC50 in assay [1] (setting [3]) amounted to 47 nM.
